Experimental findings from patent EP4049726A1, “IMIDAZO[1,2-A]PYRAZINES AS INHIBITORS OF HASPIN AND THERAPEUTIC USES THEREOF” (Fundación del Sector Público Estatal Centro Nacional de …, priority 2021, dated 2022) are described below.

Assay [1] has as its target T1, HASPIN (Homo sapiens, UniProt Q8TF76).
T1 sequence (Q8TF76 1-798): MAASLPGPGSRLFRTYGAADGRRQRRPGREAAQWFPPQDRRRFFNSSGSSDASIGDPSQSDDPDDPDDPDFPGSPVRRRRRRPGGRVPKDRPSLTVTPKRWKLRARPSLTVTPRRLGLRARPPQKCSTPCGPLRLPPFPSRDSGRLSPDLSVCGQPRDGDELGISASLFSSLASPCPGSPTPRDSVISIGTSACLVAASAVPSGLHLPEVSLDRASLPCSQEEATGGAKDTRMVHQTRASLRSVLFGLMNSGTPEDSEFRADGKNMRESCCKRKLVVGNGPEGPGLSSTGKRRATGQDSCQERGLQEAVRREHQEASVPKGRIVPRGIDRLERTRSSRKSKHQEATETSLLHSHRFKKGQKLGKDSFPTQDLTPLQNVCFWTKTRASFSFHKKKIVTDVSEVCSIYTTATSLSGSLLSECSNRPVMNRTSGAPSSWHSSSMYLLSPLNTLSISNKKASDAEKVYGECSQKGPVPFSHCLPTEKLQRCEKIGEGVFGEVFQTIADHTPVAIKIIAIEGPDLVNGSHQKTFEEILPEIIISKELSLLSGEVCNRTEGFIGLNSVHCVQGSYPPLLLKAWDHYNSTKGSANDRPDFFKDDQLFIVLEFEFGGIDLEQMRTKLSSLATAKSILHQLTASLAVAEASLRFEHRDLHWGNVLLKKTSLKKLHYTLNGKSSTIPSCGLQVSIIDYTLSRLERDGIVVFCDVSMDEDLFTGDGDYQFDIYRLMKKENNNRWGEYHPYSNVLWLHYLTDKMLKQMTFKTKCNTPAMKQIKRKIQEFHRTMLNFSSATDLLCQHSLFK
Briefly: Cellular HASPIN inhibition assay (phosphorylation of H3T3, western blot). To be noted: MV4:11 cells, 8 hours of treatment, read-out: pH3T3 EC50. It is filed as cell-based. On the procedure: Cellular HASPIN Inhibition Assay (phosphorylation of H3T3): Compounds can be screened for their ability to inhibit intracellular HASPIN using a western blot assay to detect phosphorylation of the HASPIN substrate H3T3 in synchronized cells. MV4:11 cells are plated at 400000 cells per well in 6-well plates in RPMI media supplemented with 10% foetal bovine serum, Penicillin/Streptomycin solution diluted 1: 100, and fungizone, and allowed to adhere overnight at 37 °C in 5% CO2. Then, compounds are added to the cell media from a final concentration of 10 µM in 10-fold serial dilutions and the cells are incubated at 37 °C in 5% CO2. After 8 hours of treatment with the compounds, the cells are washed in PBS, lysed adding 100 µl of protein lysis buffer (62.5 mM Tris pH 6.8 al 6.25%, 2% SDS y 10% glycerol) incubation 10 minutes at room temperature and heating at 95 °C 10 min. The protein content of the lysates is determined by DC protein assay. The proteins are resolved by SDS-PAGE and transferred to nitrocellulose membrane. The membranes are incubated overnight at 4 °C with antibodies specific for H3, phosphothreonine-3 H3 they are washed and then incubated with IRDye800 conjugated antimouse and Alexa Fluor 680 goat anti-rabbit IgG secondary antibodies. The bands are visualized and quantified using an Odyssey infrared imaging system. The percentage of H3 phosphorylation is finally plotted against concentration for each compound and EC50s for intracellular HASPIN inhibition are calculated using a software platform for screening data management.
On the technique in general: A western blot detects proteins with antibodies after separation by electrophoresis.

Assay [2] has as its target T1, HASPIN. Briefly: HASPIN biochemical assay (ADP-Glo, HASPIN autophosphorylation). To be noted: ATP 150 µM, 60 min at 30 °C. On the procedure:
HASPIN biochemical Assay: The biochemical assay to measure HASPIN activity relies on the ADP-Glo™ assay kit (Promega) that determines the amount of ADP as direct product of the kinase enzyme activity. Assay conditions were as indicated by the kit manufacturers with the following adaptations for the kinase activity step: Kinase assay buffer and assay volume (15 mM HEPES pH 7.5, 20 mM NaCl, 1 mM EGTA, 0.02% TWEEN 20, 10 mM MgCl2, 0.1 mg/mL BGG)/25 µL assay volume). Incubation time and temperature: 60 min at 30 °C. HASPIN final concentration: 0.9 µg/mL. ATP final concentration: 150 µM. HASPIN autophosphorylation was measured. Assays were performed in 384-well plates. The final outcome of the coupled reactions provided by the kit is the release of […] and has been measured with a multilabel HTS counter Victor V / Envision. Values were normalized against the control activity included (100% HASPIN activity, without compound). Values were plotted against the inhibitor concentration and fit to a sigmoid dose-response curve using Activity base by IDBS software.

Regarding `NC(=O)c1cn2cc(-c3ccnc(Cl)c3)nc(NCC3CCNCC3)c2n1` [Compound 3, 6-(2-Chloro-pyridin-4-yl)-8-[(piperidin-4-ylmethyl)-amino]-imidazo[1,2-a]pyrazine-2-carboxylic acid amide], the EC50 – broadly, the concentration that produces a half-maximal response – on HASPIN [1] was below 50 nM. At HASPIN [2], the IC50 – broadly, the midpoint of a concentration-inhibition curve – came out at 45.2 nM.
Consider `CNC(=O)c1cn2cc(-c3ccncc3)nc(NCC3CCNCC3)c2n1` [Compound 4, 8-[(Piperidin-4-ylmethyl)-amino]-6-pyridin-4-yl-imidazo[1,2-a]pyrazine-2-carboxylic acid methylamide], for which, on HASPIN [1], the EC50 is below 50 nM. The molecule also displayed an IC50 at HASPIN [2] of 20.4 nM.
`N#CC1(CNc2nc(-c3ccncc3)cn3cc(C(N)=O)nc23)CCNCC1` [Compound 8, 8-[(4-Cyano-piperidin-4-ylmethyl)-amino]-6-pyridin-4-yl-imidazo[1,2-a]pyrazine-2-carboxylic acid amide]: the EC50 on HASPIN [1] was below 50 nM. For the same molecule, the 50% inhibitory concentration (IC50) against HASPIN [2] amounted to 19.7 nM.
Taken in the same sequence, the figures for `NC(=O)c1cn2cc(-c3ccncc3F)nc(NCC3CCNCC3)c2n1` [Compound 27, 6-(3-Fluoro-pyridin-4-yl)-8-[(piperidin-4-ylmethyl)-amino]-imidazo[1,2-a]pyrazine-2-carboxylic acid amide] were below 50 nM and 9.42 nM.
For `CNC(=O)c1cn2cc(-c3ccncc3F)nc(NCC3(C#N)CCNCC3)c2n1` [Compound 32, 8-[(4-Cyano-piperidin-4-ylmethyl)-amino]-6-(3-fluoro-pyridin-4-yl)-imidazo[1,2-a]pyrazine-2-carboxylic acid methylamide] the same measures were below 50 nM and 7.63 nM.
Taken in the same sequence, the figures for `NC(=O)c1cn2cc(-c3ccncc3F)nc(NCC3(F)CCNCC3)c2n1` [Compound 33, 8-[(4-Fluoro-piperidin-4-ylmethyl)-amino]-6-(3-fluoro-pyridin-4-yl)-imidazo[1,2-a]pyrazine-2-carboxylic acid amide] were below 50 nM and 10.5 nM.
For the molecule `Cc1cc(-c2cn3cc(C(N)=O)nc3c(NCC3CCNCC3)n2)ccn1` [Compound 36, 6-(2-Methyl-pyridin-4-yl)-8-[(piperidin-4-ylmethyl)-amino]-imidazo[1,2-a]pyrazine-2-carboxylic acid amide], on HASPIN [1], the concentration giving a half-maximal response (EC50) is below 50 nM. This molecule came in with an IC50 against HASPIN [2] of 24.6 nM.
